For 27 compounds, Em effect results are on record in US20050070570A1, “Novel potassium channels modulators” (4SC AG, priority 2003, published 2005).

Structures are written as SMILES.

Chain of BK channels (CHO cells permanently transfected with cloned hSlo, α-hSlo and β-bSlo) (Q12791 whole entry): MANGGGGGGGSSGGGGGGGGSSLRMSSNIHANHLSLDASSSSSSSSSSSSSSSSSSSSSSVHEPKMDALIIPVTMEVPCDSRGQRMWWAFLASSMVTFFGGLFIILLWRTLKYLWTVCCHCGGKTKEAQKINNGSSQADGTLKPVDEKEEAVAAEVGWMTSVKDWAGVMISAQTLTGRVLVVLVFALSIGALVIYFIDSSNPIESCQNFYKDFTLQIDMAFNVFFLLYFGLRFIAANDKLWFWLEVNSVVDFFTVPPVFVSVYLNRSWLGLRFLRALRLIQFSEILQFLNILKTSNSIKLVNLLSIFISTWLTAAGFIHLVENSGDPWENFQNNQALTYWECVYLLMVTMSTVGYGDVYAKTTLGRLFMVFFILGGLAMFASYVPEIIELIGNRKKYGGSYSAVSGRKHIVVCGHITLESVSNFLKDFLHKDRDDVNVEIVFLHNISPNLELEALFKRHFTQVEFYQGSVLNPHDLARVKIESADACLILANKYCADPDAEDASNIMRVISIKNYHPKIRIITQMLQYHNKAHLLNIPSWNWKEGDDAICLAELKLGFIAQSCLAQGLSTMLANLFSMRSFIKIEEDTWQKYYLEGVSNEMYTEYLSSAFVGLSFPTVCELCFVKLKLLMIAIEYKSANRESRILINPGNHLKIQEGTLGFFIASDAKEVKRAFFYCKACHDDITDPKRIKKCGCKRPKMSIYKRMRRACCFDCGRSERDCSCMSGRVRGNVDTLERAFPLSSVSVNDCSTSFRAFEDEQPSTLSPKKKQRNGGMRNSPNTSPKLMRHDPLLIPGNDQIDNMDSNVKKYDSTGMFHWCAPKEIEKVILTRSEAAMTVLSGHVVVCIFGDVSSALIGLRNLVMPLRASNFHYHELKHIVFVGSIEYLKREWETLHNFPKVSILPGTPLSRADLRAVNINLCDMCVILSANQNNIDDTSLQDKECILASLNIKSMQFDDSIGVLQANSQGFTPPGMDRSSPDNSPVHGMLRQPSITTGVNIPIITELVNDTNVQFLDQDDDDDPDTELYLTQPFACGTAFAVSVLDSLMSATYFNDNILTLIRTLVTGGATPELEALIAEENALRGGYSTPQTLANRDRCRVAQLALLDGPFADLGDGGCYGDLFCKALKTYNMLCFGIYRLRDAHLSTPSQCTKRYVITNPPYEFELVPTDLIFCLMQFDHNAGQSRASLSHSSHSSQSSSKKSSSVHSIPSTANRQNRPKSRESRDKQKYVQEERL
Chain of BK channels (CHO cells permanently transfected with cloned hSlo, α-hSlo and β-bSlo) (Q28067 whole entry partner): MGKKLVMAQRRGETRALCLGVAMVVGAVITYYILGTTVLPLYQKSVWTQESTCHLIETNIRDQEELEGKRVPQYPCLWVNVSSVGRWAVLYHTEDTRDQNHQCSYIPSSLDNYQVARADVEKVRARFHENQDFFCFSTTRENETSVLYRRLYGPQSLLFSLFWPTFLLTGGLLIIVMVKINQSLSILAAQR

The assay addresses BK channels (CHO cells permanently transfected with cloned hSlo, α-hSlo and β-bSlo) (Homo sapiens, UniProt Q12791). Description: Em-Assay: fluorescence membrane potential assay with voltage sensitive dye DiBAC(4)3. The assay is classed as cell-based. The conditions noted are these: ratio of the compound effect (50 μM) compared to the maximal effect of NS004 (25 or 50 μM). The text has this:
The large conductance, voltage-dependent and Ca^2+-activated potassium channel BK is a potassium selective ion channel and belongs to the subfamily of KCa channels. Four BK alpha-subunits form a functional channel that can be regulated by intracellular Ca^2+ concentration, membrane voltage, and other mechanisms like phosphorylation states or beta subunits. To test the biological activity of the compounds, we applied two different techniques, a fluorescence based assay using a voltage sensitive dye (Em-Assay) as well as exploiting electrophysiological methods.
CHO cells permanently transfected with cloned hSlo (α-hSlo and β-bSlo), yielding typical BK potassium currents (Zhou et al., Pflügers Arch., 436: 725-734 (1998), were used for the evaluation of compound activity. Activation or inhibition of BK channels in these cells leads to a change of the electrochemical gradient causing a hyperpolarized or depolarised membrane potential, respectively.
To determine changes in the membrane potential of the cells we used the voltage sensitive dye DiBaC(4)3 (Molecular Probes) in a kinetic assay system using a fluorescent plate reader (Manning and Sontheimer, J. Neurosci. Meth., 91: 73-81 (1999). The anionic bis-oxonol DiBAC(4)3 is a voltage sensitive dye which partitions from the extracellular environment into the cell where it reversibly binds to intracellular proteins, a kinetic process depending on the membrane potential of the cell. At depolarised potentials (i.e. at a reduced K^+ efflux due to blocked K^+ channels) the dye accumulates in the cell leading to an increased fluorescence intensity, due to its increased fluorescence if bound to cellular proteins. At hyperpolarized potentials (i.e. at an increased K^+ efflux due to the opening of K^+ channels), the dye partitions out of the cell causing a decreased fluorescence intensity.
hslo transfected CHO cells where maintained in DMEM supplemented with 10% FCS, 250 μg/ml Geneticin, 100 μg/m Hygromycin, 1×HT-Supplement, and 1×Non-essential Amino Acids and cultured in a humidified CO2 incubator. After trypsination, cells where plated with a density of 5×10^4 cells per well on a clear 96-well plate and incubated for 24 h. Cells where washed once with PBS, once with PBS containing 20 mM HEPES (adjusted to pH 7.4 with NaOH) and 2 μM DiBAC(4)3 (DPBS-DiBAC solution). 180 μl of the dPBS-DiBAC solution was then added to the cells and the plate incubated for 30-60 min at 37° C. During this time the dye could partition into the cells and reach a certain steady-state distribution, depending on the resting membrane potential. Test and reference compounds were stored as DMSO stock solutions and diluted in dPBS-DiBAC solution to the desired concentration.
Fluorescence intensity (Ex.: 485 nm/Em.: 520 nm) of each well was detected in the plate reader (Fluostar, BMG) every 60 seconds. After recording the baseline fluorescence for 7 minutes, 20 μl test- and reference compounds were added and the fluorescence intensity was detected for additional 15 minutes. Background was subtracted, data values were normalized and expressed as a change in fluorescence intensity against time. The change in fluorescence intensity caused by the test compounds was evaluated, compared to the effect of the reference compound NS004, and the ratio was determined (see Table I).
As to `COc1ccc(C(=O)N2CCc3cc(OC)cc(OC)c3C2c2ccc(-c3ccccc3)cc2)cc1` (stereo not drawn) [Compound 1, (1-Biphenyl-4-yl-6,8-dimethoxy-3,4-dihydro-1H-isoquinolin-2-yl)-(4-methoxy-phenyl)-methanone], the Em effect entry is “+ (0-1=+)”.

In the case of `COc1cc2c(c(OC)c1)C(c1ccc(-c3ccccc3)cc1)N(C(=O)c1ccc([N+](=O)[O-])cc1)CC2` (stereo not drawn) [Compound 2, (1-Biphenyl-4-yl-6,8-dimethoxy-3,4-dihydro-1H-isoquinolin-2-yl)-(4-nitro-phenyl)-methanone], the Em effect entry was “+ (0-1=+)”.

For the compound `COc1cc2c(c(OC)c1)C(c1ccc(-c3ccccc3)cc1)N(C(=O)c1cccc(Br)c1)CC2` (stereo not drawn) [Compound 3, (1-Biphenyl-4-yl-6,8-dimethoxy-3,4-dihydro-1H-isoquinolin-2-yl)-(3-bromo-phenyl) methanone], the Em effect entry is given as “+ (0-1=+)”.

Take `COc1cc2c(c(OC)c1)C(c1ccc(-c3ccccc3)cc1)N(C(=O)c1ccc(C(F)(F)F)cc1)CC2` (stereo not drawn) [Compound 4, (1-Biphenyl-4-yl-6,8-dimethoxy-3,4-dihydro-1H-isoquinolin-2-yl)-(4-trifluoromethylphenyl)-methanone]: the Em effect entry is reported as “+ (0-1=+)”.

As to `COc1cc2c(c(OC)c1)C(c1ccc(-c3ccccc3)cc1)N(C(=O)c1ccc(C(F)(F)F)cc1F)CC2` (stereo not drawn) [Compound 5, (1-Biphenyl-4-yl-6,8-dimethoxy-3,4-dihydro-1H-isoquinolin-2-yl)-(2-fluoro-4-trifluoromethyl-phenyl)-methanone], the Em effect entry is “+ (0-1=+)”.

As to `COc1cc2c(c(OC)c1)C(c1ccc(-c3ccccc3)cc1)N(C(=O)c1ccc(C(C)(C)C)cc1)CC2` (stereo not drawn) [Compound 6, (1-Biphenyl-4-yl-6,8-dimethoxy-3,4-dihydro-1H-isoquinolin-2-yl)-(4-tert-butyl-phenyl)-methanone], the Em effect entry was “+ (0-1=+)”.

For `COc1cc2c(c(OC)c1)C(c1ccc(-c3ccccc3)cc1)N(C(=O)c1ccc(OC(F)(F)F)cc1)CC2` (stereo not drawn) [Compound 7, (1-Biphenyl-4-yl-6,8-dimethoxy-3,4-dihydro-1H-isoquinolin-2-yl)-(4-trifluoromethoxy-phenyl)-methanone], the Em effect entry is reported as “+ (0-1=+)”.

As for `COc1cc2c(c(OC)c1)C(c1ccc(-c3ccccc3)cc1)N(C(=O)c1cc(C(F)(F)F)cc(C(F)(F)F)c1)CC2` (stereo not drawn) [Compound 8, (1-Biphenyl-4-yl-6,8-dimethoxy-3,4-dihydro-1H-isoquinolin-2-yl)-(3,5-bis-trifluoromethyl-phenyl)methanone], the Em effect entry was “+ (0-1=+)”.

Turning to `COc1cccc(C(=O)N2CCc3cc(OC)cc(OC)c3C2c2ccc(O)cc2)c1` (stereo not drawn) [Compound 9, [1-(4-Hydroxy-phenyl)-6,8-dimethoxy-3,4-dihydro-1H-isoquinolin-2-yl]-(3-methoxy-phenyl)-methanone], the Em effect entry is reported as “+ (0-1=+)”.

As to `COc1cc2c(c(OC)c1)C(c1ccc(O)cc1)N(C(=O)CCCCBr)CC2` (stereo not drawn) [Compound 10, 5-Bromo-1-[1-(4-hydroxy-phenyl)-6,8-dimethoxy-3,4-dihydro-1H-isoquinolin-2-yl]-pentan-1-one], the Em effect entry was “+ (0-1=+)”.

Turning to `COc1cc2c(c(OC)c1)C(c1ccc(O)cc1)N(C(=O)c1cccc(OC(F)(F)F)c1)CC2` (stereo not drawn) [Compound 11, [1-(4-Hydroxy-phenyl)-6,8-dimethoxy-3,4-dihydro-1H-isoquinolin-2-yl]-(3-trifluoromethoxy-phenyl)-metanone], the Em effect entry is reported as “+ (0-1=+)”.

Regarding `COc1cc2c(c(OC)c1)C(c1ccc(O)cc1)N(C(=O)CCc1ccccc1)CC2` (stereo not drawn) [Compound 12], the Em effect entry is given as “+ (0-1=+)”.

In the case of `COc1cc2c(c(OC)c1)C(c1ccc(O)cc1)N(C(=O)c1ccccc1OC(F)(F)F)CC2` (stereo not drawn) [Compound 13], the Em effect entry is “+ (0-1=+)”.

In the case of `COc1cc2c(c(OC)c1)C(c1ccc(O)cc1)N(C(=O)c1ccc(C(C)(C)C)cc1)CC2` (stereo not drawn) [Compound 14, (4-tert-Butyl-phenyl)-[1-(4-hydroxy-phenyl)-6,8-dimethoxy-3,4-dihydro-1-H-isoquinolin-2-yl]-methanone], the Em effect result is “+ (0-1=+)”.

For `COc1cc2c(c(OC)c1)C(c1ccc(O)cc1)N(C(=O)c1ccc(-c3ccccc3)cc1)CC2` (stereo not drawn) [Compound 15, Biphenyl-4-yl-[1-(4-hydroxy-phenyl)-6,8-dimethoxy-3,4-dihydro-1H-isoquinolin-2-yl]-methanone], the Em effect entry is “+ (0-1=+)”.

As to `COc1cc2c(c(OC)c1)C(c1ccc(O)cc1)N(C(=O)c1cnc3ccccc3n1)CC2` (stereo not drawn) [Compound 16, [1-(4-Hydroxy-phenyl)-6,8-dimethoxy-3,4-dihydro-1H-isoquinolin-2-yl]-quinoxalin-2-yl-methanone], the Em effect result is recorded as “+ (0-1=+)”.

Turning to `COc1cc2c(c(OC)c1)C(c1ccc(O)cc1)N(C(=O)c1cccc3ccccc13)CC2` (stereo not drawn) [Compound 17, [1-(4-Hydroxy-phenyl)-6,8-dimethoxy-3,4-dihydro-1H-isoquinolin-2-yl]-naphthalen-1-yl-methanone], the Em effect entry is recorded as “+ (0-1=+)”.

For the compound `COc1cc2c(c(OC)c1)C(c1ccc(O)cc1)N(C(=O)c1cccc(C(F)(F)F)c1)CC2` (stereo not drawn) [Compound 18, [1-(4-Hydroxy-phenyl)-6,8-dimethoxy-3,4-dihydro-1H-isoquinolin-2-yl]-(3-trifluoromethyl-phenyl)-methanone], the Em effect entry is recorded as “+ (0-1=+)”.

With `COc1cc2c(c(OC)c1)C(c1ccc(O)cc1)N(C(=O)C1CCCC1)CC2` (stereo not drawn) [Compound 19, Cyclopentyl-[1-(4-hydroxy-phenyl)-6,8-dimethoxy-3,4-dihydro-1H-isoquinolin-2-yl]-methanone], the Em effect entry is given as “+ (0-1=+)”.

With `COc1cc2c(c(OC)c1)C(c1ccc(O)cc1)N(C(=O)c1ccc(C(F)(F)F)cc1)CC2` (stereo not drawn) [Compound 20, [1-(4-Hydroxy-phenyl)-6,8-dimethoxy-3,4-dihydro-1H-isoquinolin-2-yl]-(4-trifluoromethyl-phenyl)methanone], the Em effect entry is “+ (0-1=+)”.

As to `COc1cc2c(c(OC)c1)C(c1ccc(O)cc1)N(C(=O)CCC1CCCC1)CC2` (stereo not drawn) [Compound 21, 3-Cyclopentyl-1-[1-(4-hydroxy-phenyl)-6,8-dimethoxy-3,4-dihydro-1H-isoquinolin-2-yl]-propan-1-one], the Em effect entry was “+++ (>1.5=+++)”.

On to `COc1ccc(C(=O)N2CCc3cc(OC)cc(OC)c3C2c2ccc(O)cc2)cc1` (stereo not drawn) [Compound 22, [1-(4-Hydroxy-phenyl)-6,8-dimethoxy-3,4-dihydro-1H-isoquinolin-2-yl]-(4-methoxy-phenyl)-methanone], for which the Em effect result is given as “+ (0-1=+)”.

As to `COc1cc2c(c(OC)c1)C(c1ccc(O)cc1)N(C(=O)CCC1CCCCC1)CC2` (stereo not drawn) [Compound 23, 3-Cyclohexyl-1-[1-(4-hydroxy-phenyl)-6,8-dimethoxy-3,4-dihydro-1H-isoquinolin-2-yl]-propan-1-one], the Em effect entry is “+ (0-1=+)”.

For `COc1cc2c(c(OC)c1)C(c1ccc(O)cc1)N(C(=O)c1sc3ccccc3c1Cl)CC2` (stereo not drawn) [Compound 24, (3-Chloro-benzo[b]thiophen-2-yl)-[1-(4-hydroxy-phenyl)-6,8-dimethoxy-3,4-dihydro-1H-iso-quinolin-2-yl]-methanone], the Em effect entry is recorded as “+ (0-1=+)”.

As for `COc1cc2c(c(OC)c1)C(c1ccc(O)cc1)N(C(=O)c1cccs1)CC2` (stereo not drawn) [Compound 25, [1-(4-Hydroxy-phenyl)-6,8-dimethoxy-3,4-dihydro-1H-iso-quinolin-2-yl]-thiophen-2-yl-methanone], the Em effect entry was “+ (0-1=+)”.

In the case of `COc1cc2c(c(OC)c1)C(c1ccc(O)cc1)N(C(=O)c1ccc3c(c1)OCO3)CC2` (stereo not drawn) [Compound 26, Benzo[1,3]dioxol-5-yl-[1-(4-hydroxy-phenyl)-6,8-dimethoxy-3,4-dihydro-1H-isoquinolin-2-yl]-methanone], the Em effect entry is listed as “+ (0-1=+)”.

Consider `COc1cc2c(c(OC)c1)C(c1ccc(O)cc1)N(C(=O)c1ccno1)CC2` (stereo not drawn) [Compound 27, [1-(4-Hydroxy-phenyl)-6,8-dimethoxy-3,4-dihydro-1H-isoquinolin-2-yl]-isoxazol-5-yl-methanone], for which the Em effect result is reported as “+ (0-1=+)”.
